Laboratory results reported in paper PMC5999115, “Anti-tumor activity of phenoxybenzamine and its inhibition of histone deacetylases” (PLoS ONE, 2018).

Key:
Assay in all cases: Oncotest CellTiter-Blue cell viability assay, 72 hours
Assay type in all cases: cell-based, human
MAXF T47D = conditions: MAX T47D, 10% FCS
Method: (§1) Further studies with varying drug concentrations on selected human cell lines, in most cases those studied in the NCI60 screen, were conducted by Oncotest GmbH laboratories, Freiburg, Germany; Oncotest is a division of Charles River Laboratories. The dissolution procedure for PBZ and the cell culture […] was 72 hours; anti-tumor activity was determined with the CellTiter-Blue® Cell Viability Assay, Promega, Mannheim, Germany. The 50% Inhibitory (IC50) concentrations were determined. The results are the average of duplicate assays. Paclitaxel was included as a reference compound to confirm the integrity of the assays. See S1 Appendix for further details.
(§2) “Cell lines were routinely passaged once or twice weekly and maintained in culture for up to 20 passages. Cells were grown at 37°C in a humidified atmosphere with 5% CO2 in RPMI 1640 medium (25 mM HEPES, with L-glutamine, #FG1385, Biochrom, Berlin, Germany) supplemented with 10% (v/v) fetal calf serum (Sigma, Taufkirchen, Germany) and 0.1 mg/mL gentamicin (Life Technologies, Karlsruhe, Germany).”

PRXF PC-3 = tested on: PRXF PC-3
Method: as §1, §2

MMXF RPMI 8226 = tested on: MMXF RPMI 8226
Method: as §1, §2

[1] = PRXF PC-3, 10% FCS, study P495A
[2] = PRXF PC-3, 10% FCS, study P495B
[3] = MMX RPMI8226, 1% FCS, study P495C
[4] = MMX RPMI8226, 10% FCS, study P495A
[5] = MMX RPMI8226, 10% FCS, study P495B

Q: Which “Test/Control (%) at Drug Concentration [uM] 3,2E-01” value (“Test/Control (%) … [uM] 3,2E-01” for short) (MAXF T47D; study P495A) does the source give for `CC(COc1ccccc1)N(CCCl)Cc1ccccc1` (stereo not shown) [PBZ, phenoxybenzamine] here?
A: 97%

Q: And the “Test/Control (%) at Drug Concentration [uM] 3,2E-02” value (“Test/Control (%) … [uM] 3,2E-02” below) (MAXF T47D; study P495A)?
A: 92%

Q: And the “Test/Control (%) at Drug Concentration [uM] 3,2E-03” value (shortened to “Test/Control (%) … [uM] 3,2E-03”) (MAXF T47D; study P495A)?
A: 97%

Q: What about the “Test/Control (%) at Drug Concentration [uM] 1,0E+00” value (“Test/Control (%) … [uM] 1,0E+00” for short) (MAXF T47D; study P495B) of the same molecule?
A: 80%

Q: And the “Test/Control (%) at Drug Concentration [uM] 1,0E+01” value (“Test/Control (%) … [uM] 1,0E+01” below) (MAXF T47D; study P495B)?
A: 79%

Q: What about the “Test/Control (%) at Drug Concentration [uM] 1,0E+02” value (shortened to “Test/Control (%) … [uM] 1,0E+02”) (MAXF T47D; study P495B) of the same molecule?
A: 57%

Q: And the “Test/Control (%) at Drug Concentration [uM] 1,0E-01” value (“Test/Control (%) … [uM] 1,0E-01” for short) (MAXF T47D; study P495B)?
A: 92%

Q: What about the “Test/Control (%) at Drug Concentration [uM] 1,0E-02” value (from here on “Test/Control (%) … [uM] 1,0E-02”) (MAXF T47D; study P495B) of the same molecule?
A: 93%

Q: What about the “Test/Control (%) at Drug Concentration [uM] 1,0E-03” value (from here on “Test/Control (%) … [uM] 1,0E-03”) (MAXF T47D; study P495B) of the same molecule?
A: 94%

Q: What about the “Test/Control (%) at Drug Concentration [uM] 3,2E+00” value (“Test/Control (%) … [uM] 3,2E+00” below) (MAXF T47D; study P495B) of the same molecule?
A: 79%

Q: And the “Test/Control (%) at Drug Concentration [uM] 3,2E+01” value (shortened to “Test/Control (%) … [uM] 3,2E+01”) (MAXF T47D; study P495B)?
A: 84%

Q: And the “Percent cell growth in Oncotest screen with 10% FCS (72 hr incubation)” value (PRXF PC-3; 10 μM phenoxybenzamine, PC-3)?
A: 86%

Q: What about the IC50 (PRXF PC-3; Homo sapiens, PRXF PC-3 Prostate, 1% FCS) of the same molecule?
A: 29.8 µM

Q: And the “Test/Control (%) … [uM] 1,0E+00” value (PRXF PC-3; PRXF PC-3, 1% FCS, study P495C)?
A: 102%

Q: What about the “Test/Control (%) … [uM] 1,0E+01” value (PRXF PC-3; PRXF PC-3, 1% FCS, study P495C) of the same molecule?
A: 100%

Q: What about the “Test/Control (%) … [uM] 1,0E+02” value (PRXF PC-3; PRXF PC-3, 1% FCS, study P495C) of the same molecule?
A: 22%

Q: And the “Test/Control (%) … [uM] 3,2E+00” value (PRXF PC-3; PRXF PC-3, 1% FCS, study P495C)?
A: 105%

Q: And the “Test/Control (%) … [uM] 3,2E+01” value (PRXF PC-3; PRXF PC-3, 1% FCS, study P495C)?
A: 58%

Q: And the “Test/Control (%) … [uM] 1,0E+00” value (PRXF PC-3; [1])?
A: 86%

Q: What about the “Test/Control (%) … [uM] 1,0E+01” value (PRXF PC-3; [1]) of the same molecule?
A: 86%

Q: And the “Test/Control (%) … [uM] 1,0E+02” value (PRXF PC-3; [1])?
A: 52%

Q: What about the “Test/Control (%) … [uM] 1,0E-01” value (PRXF PC-3; [1]) of the same molecule?
A: 87%

Q: And the “Test/Control (%) … [uM] 1,0E-02” value (PRXF PC-3; [1])?
A: 83%

Q: What about the “Test/Control (%) … [uM] 3,2E+00” value (PRXF PC-3; [1]) of the same molecule?
A: 89%

Q: And the “Test/Control (%) … [uM] 3,2E+01” value (PRXF PC-3; [1])?
A: 82%

Q: And the “Test/Control (%) … [uM] 3,2E-01” value (PRXF PC-3; [1])?
A: 91%

Q: And the “Test/Control (%) … [uM] 3,2E-02” value (PRXF PC-3; [1])?
A: 87%

Q: And the “Test/Control (%) … [uM] 3,2E-03” value (PRXF PC-3; [1])?
A: 91%

Q: What about the “Test/Control (%) … [uM] 1,0E+00” value (PRXF PC-3; [2]) of the same molecule?
A: 89%

Q: And the “Test/Control (%) … [uM] 1,0E+01” value (PRXF PC-3; [2])?
A: 77%

Q: And the “Test/Control (%) … [uM] 1,0E+02” value (PRXF PC-3; [2])?
A: 49%

Q: And the “Test/Control (%) … [uM] 1,0E-01” value (PRXF PC-3; [2])?
A: 84%

Q: What about the “Test/Control (%) … [uM] 1,0E-02” value (PRXF PC-3; [2]) of the same molecule?
A: 88%

Q: What about the “Test/Control (%) … [uM] 1,0E-03” value (PRXF PC-3; [2]) of the same molecule?
A: 81%

Q: What about the “Test/Control (%) … [uM] 3,2E+00” value (PRXF PC-3; [2]) of the same molecule?
A: 92%

Q: What about the “Test/Control (%) … [uM] 3,2E+01” value (PRXF PC-3; [2]) of the same molecule?
A: 74%

Q: And the “Percent cell growth in Oncotest screen with 10% FCS (72 hr incubation)” value (MMXF RPMI 8226; 10 μM phenoxybenzamine, RPMI 8226)?
A: 98%

Q: What about the IC50 (MMXF RPMI 8226; Homo sapiens, MMXF RPMI 8226 Myeloma, 1% FCS) of the same molecule?
A: 44.4 µM

Q: What about the “Test/Control (%) … [uM] 1,0E+00” value (MMXF RPMI 8226; [3]) of the same molecule?
A: 102%

Q: And the “Test/Control (%) … [uM] 1,0E+01” value (MMXF RPMI 8226; [3])?
A: 95%

Q: What about the “Test/Control (%) … [uM] 1,0E+02” value (MMXF RPMI 8226; [3]) of the same molecule?
A: 5%

Q: What about the “Test/Control (%) … [uM] 3,2E+00” value (MMXF RPMI 8226; [3]) of the same molecule?
A: 101%

Q: And the “Test/Control (%) … [uM] 3,2E+01” value (MMXF RPMI 8226; [3])?
A: 77%

Q: And the “Test/Control (%) … [uM] 1,0E+00” value (MMXF RPMI 8226; [4])?
A: 89%

Q: And the “Test/Control (%) … [uM] 1,0E+01” value (MMXF RPMI 8226; [4])?
A: 98%

Q: What about the “Test/Control (%) … [uM] 1,0E+02” value (MMXF RPMI 8226; [4]) of the same molecule?
A: 10%

Q: And the “Test/Control (%) … [uM] 1,0E-01” value (MMXF RPMI 8226; [4])?
A: 83%

Q: And the “Test/Control (%) … [uM] 1,0E-02” value (MMXF RPMI 8226; [4])?
A: 80%

Q: And the “Test/Control (%) … [uM] 3,2E+00” value (MMXF RPMI 8226; [4])?
A: 87%

Q: What about the “Test/Control (%) … [uM] 3,2E+01” value (MMXF RPMI 8226; [4]) of the same molecule?
A: 99%

Q: And the “Test/Control (%) … [uM] 3,2E-01” value (MMXF RPMI 8226; [4])?
A: 84%

Q: And the “Test/Control (%) … [uM] 3,2E-02” value (MMXF RPMI 8226; [4])?
A: 76%

Q: And the “Test/Control (%) … [uM] 3,2E-03” value (MMXF RPMI 8226; [4])?
A: 86%

Q: And the “Test/Control (%) … [uM] 1,0E+00” value (MMXF RPMI 8226; [5])?
A: 88%

Q: And the “Test/Control (%) … [uM] 1,0E+01” value (MMXF RPMI 8226; [5])?
A: 94%

Q: And the “Test/Control (%) … [uM] 1,0E+02” value (MMXF RPMI 8226; [5])?
A: 16%

Q: And the “Test/Control (%) … [uM] 1,0E-01” value (MMXF RPMI 8226; [5])?
A: 100%

Q: What about the “Test/Control (%) … [uM] 1,0E-02” value (MMXF RPMI 8226; [5]) of the same molecule?
A: 100%

Q: What about the “Test/Control (%) … [uM] 1,0E-03” value (MMXF RPMI 8226; [5]) of the same molecule?
A: 100%

Q: And the “Test/Control (%) … [uM] 3,2E+00” value (MMXF RPMI 8226; [5])?
A: 92%

Q: And the “Test/Control (%) … [uM] 3,2E+01” value (MMXF RPMI 8226; [5])?
A: 95%
